IC50 data for two compounds are collected here from PMC12473319, “TDMQ20 as A Drug Candidate for Wilson’s Disease: Comparison with D-Penicillamine, Trientine, and Tetrathiomolybdate In Vitro and In Mice” (Pharmaceutics, 2025).

This test has as its target T1, Cu,Zn-SOD (Cu,Zn-superoxide dismutase) (Bos taurus, UniProt P00442).
T1 construct: gene SOD1
The test is described as follows: SOD kit (xanthine/xanthine oxidase, WST-1 formazan at […] nm) after […] h pre-incubation with chelator. In kind it is biochemical. A general note: Formazan colour is commonly taken as a measure of viable cells.

SMILES strings stand for the structures. Like-named read-outs stand apart in the source and are kept apart here. Bounds are passed on as bounds.

T1 sequence (P00442 2-152): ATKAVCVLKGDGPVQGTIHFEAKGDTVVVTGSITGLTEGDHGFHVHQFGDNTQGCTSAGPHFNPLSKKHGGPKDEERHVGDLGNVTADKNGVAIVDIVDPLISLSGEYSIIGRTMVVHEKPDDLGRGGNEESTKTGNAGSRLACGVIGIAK

Usually IC50 stands for the concentration that inhibits the measured activity by half. For `CC(C)(S)[C@@H](N)C(=O)O` [DPA, 3-mercapto-D-valine], the IC50 (read-out: IC50) is 50 to 100 µM. Compound `[S]=[Mo](=[S])([SH])[SH]` [bcTTM, Bis-choline-tetrathiomolybdate] returned an IC50 of less than 0.2 µM.
